Test results from US7713994B2 (Wyeth LLC, priority 2005, dated 2010).
Where two headings read alike, the source gives them in different places.

Columns and labels:
HCT-116 = experiment: Cytotoxicity assay (SRB), HCT-116; format: cell-based; conditions: Homo sapiens, HCT-116, 72 h, HCT116 cells, SRB, read-out: In Vitro Cellular Activity IC50 HCT116
Procedure, shortened: (§1)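 BT474 (12000 cells/well) was treated for 6 days, whereas HCT-116 (4000), LoVo (6000) and MCF-7 (6000) were treated for 3 days, all in RPMI 1640 containing 5% FBS. Surviving-cell percentage came from SRB dye binding measured at 540 nm.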

MCF-7 = experiment: Cytotoxicity assay (SRB), MCF-7; format: cell-based; conditions: Homo sapiens, MCF7, 72 h, MCF-7 cells, SRB, read-out: In Vitro Cellular Activity IC50 MCF-7
Procedure, shortened: as §1

LoVo = experiment: Cytotoxicity assay (SRB), LoVo; format: cell-based; conditions: Homo sapiens, LoVo, 72 h, LoVo cells, SRB, read-out: In Vitro Cellular Activity IC50 LOVO
Procedure, shortened: as §1

cyclin D1/cdk 4 enzyme = molecular target: T1, cyclin D1/cdk 4 enzyme (Homo sapiens, UniProt P11802); experiment: CDK4 ELISA kinase assay (phospho-Rb ser 795 detection); format: biochemical; conditions: In Vitro Enzyme Assays, 200 μM ATP, read-out: CDK4 IC50
T1 construct: made in house; host or cells: Sf9 insect cells, recombinant baculovirus
Procedure, shortened: (§2)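 Wells were coated overnight with GST-Rb C-terminal fragment, then blocked. Compound (10 ug/ml final) and cyclin/CDK enzyme from baculovirus-infected Sf9 cells with 200 μM ATP reacted 1 h at 30° C. Ser795 phosphorylation was detected by ELISA at 450 nm.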

cyclin E/CDK2 enzyme = molecular target: T2, cyclin E/CDK2 enzyme (Homo sapiens, UniProt P24941); experiment: CDK2 ELISA kinase assay (phospho-Rb ser 795 detection); format: biochemical; conditions: In Vitro Enzyme Assays, read-out: CDK2 IC50
T2 construct: made in house; host or cells: Sf9 insect cells, recombinant baculovirus
Procedure, shortened: as §2

cyclin B/CDK1 enzyme = molecular target: T3, cyclin B/CDK1 enzyme (Homo sapiens, UniProt P06493); experiment: CDK1 ELISA kinase assay (phospho-Rb ser 795 detection); format: biochemical; conditions: In Vitro Enzyme Assays, read-out: CDK1 IC50
T3 construct: purchased New England BioLabs; host or cells: Sf9 insect cells, recombinant baculovirus
Procedure, shortened: as §2

BT474 = experiment: Cytotoxicity assay (SRB), BT474; format: cell-based
Procedure, shortened: as §1

[1] = Homo sapiens, BT-474, 144 h, BT474 cells, SRB, 6 days; read-out: In Vitro Cellular Activity IC50 BT474

T1 sequence (P11802 whole entry, species assumed): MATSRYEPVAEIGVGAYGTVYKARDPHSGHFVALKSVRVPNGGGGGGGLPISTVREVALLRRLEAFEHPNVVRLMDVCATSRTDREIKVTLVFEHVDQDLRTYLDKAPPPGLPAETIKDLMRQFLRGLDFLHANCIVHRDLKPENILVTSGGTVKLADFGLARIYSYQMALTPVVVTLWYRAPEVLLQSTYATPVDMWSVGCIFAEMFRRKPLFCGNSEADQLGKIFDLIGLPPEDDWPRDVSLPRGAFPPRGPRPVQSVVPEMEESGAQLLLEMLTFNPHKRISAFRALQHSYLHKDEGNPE
T1 sequence (P24385 whole entry partner, species assumed): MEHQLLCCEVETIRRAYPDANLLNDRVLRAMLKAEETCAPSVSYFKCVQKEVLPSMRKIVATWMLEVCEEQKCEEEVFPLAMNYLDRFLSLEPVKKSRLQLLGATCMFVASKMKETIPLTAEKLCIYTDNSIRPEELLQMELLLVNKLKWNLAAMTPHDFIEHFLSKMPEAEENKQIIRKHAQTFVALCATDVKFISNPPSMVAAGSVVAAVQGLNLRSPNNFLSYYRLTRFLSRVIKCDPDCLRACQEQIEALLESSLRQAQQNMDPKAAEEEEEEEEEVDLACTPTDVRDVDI
T3 sequence (P06493 whole entry): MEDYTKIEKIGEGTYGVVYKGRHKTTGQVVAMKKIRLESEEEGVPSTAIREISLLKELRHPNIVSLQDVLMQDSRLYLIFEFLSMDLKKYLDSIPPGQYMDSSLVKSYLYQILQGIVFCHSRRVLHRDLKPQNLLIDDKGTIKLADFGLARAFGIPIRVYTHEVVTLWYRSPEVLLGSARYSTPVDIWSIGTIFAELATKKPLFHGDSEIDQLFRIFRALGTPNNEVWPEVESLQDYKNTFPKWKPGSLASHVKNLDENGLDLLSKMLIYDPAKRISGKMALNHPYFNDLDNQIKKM
T3 sequence (P14635 whole entry partner): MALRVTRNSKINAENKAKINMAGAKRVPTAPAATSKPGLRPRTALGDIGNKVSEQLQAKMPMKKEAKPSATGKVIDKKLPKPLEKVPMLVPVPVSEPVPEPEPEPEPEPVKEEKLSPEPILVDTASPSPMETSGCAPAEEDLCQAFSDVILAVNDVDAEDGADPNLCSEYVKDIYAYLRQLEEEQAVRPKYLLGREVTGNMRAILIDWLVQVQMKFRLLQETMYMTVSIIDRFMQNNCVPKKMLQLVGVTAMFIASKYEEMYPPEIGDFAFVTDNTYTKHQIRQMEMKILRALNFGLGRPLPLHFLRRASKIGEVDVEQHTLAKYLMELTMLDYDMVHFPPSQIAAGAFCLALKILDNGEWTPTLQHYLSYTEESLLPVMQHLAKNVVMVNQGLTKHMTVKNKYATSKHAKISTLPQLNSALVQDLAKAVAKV

SMILES | IC50 (HCT-116; three days) [µM] | IC50 (MCF-7; three days) [µM] | IC50 (LoVo; three days) [µM] | IC50 (cyclin D1/cdk 4 enzyme) [µM] | IC50 (cyclin E/CDK2 enzyme) [µM] | IC50 (cyclin B/CDK1 enzyme) [µM] | IC50 (BT474; [1]) [µM] | melting point | IC50 (HCT-116; 3 days) [µM] | IC50 (MCF-7; 3 days) [µM] | IC50 (LoVo; 3 days) [µM] | IC50 (BT474; Homo sapiens, BT-474, 144 h, BT474 cells, 6 days, SRB; read-out: In Vitro Cellular Activity IC50 BT474) [µM]
COc1cc(CN/C=C2\C(=O)NC(=O)c3ccc(Br)cc32)cc(OC(C)=O)c1OC [Example 77, 5-({[(Z)-(6-Bromo-1,3-dioxo-2,3-dihydroisoquinolin-4(1H)-ylidene)methyl]amino}methyl)-2,3-dimethoxyphenyl acetate] | 4.8 | 14.4 | 8.4 | 0.38 | > 50 | > 50 | 7.7 | 244 to 245 °C | – | – | – | –
CN1CCN(c2ccc(N/C=C3\C(=O)NC(=O)c4ccc(Br)cc43)nc2)CC1 [Example 442, (4Z)-6-Bromo-4-({[5-(4-methylpiperazin-1-yl)pyridin-2-yl]amino}methylene)isoquinoline-1,3(2H,4H)-dione] | – | – | – | 3.3 | 25.3 | 15.8 | – | 191 to 192 °C | 1.1 | 2.4 | 4.1 | 3.7
CC1CN(c2ccc(N/C=C3\C(=O)NC(=O)c4ccc(Br)cc43)cc2)CC(C)N1 (stereo not shown) [Example 201] | 1.1 | 1.7 | 1.4 | 4.1 | > 50 | > 50 | 1.4 | 229 to 230 °C | – | – | – | –
C[C@@H]1CN(c2c(F)cc(N/C=C3\C(=O)NC(=O)c4ccc(Br)cc43)cc2F)C[C@H](C)N1 [Example 381, (4Z)-6-Bromo-4-[({4-[(3R,5S)-3,5-dimethylpiperazin-1-yl]-3,5-difluorophenyl}amino)-methylene]isoquinoline-1,3(2H,4H)-dione] | 2 | 4.3 | 3.4 | 13.2 | 3.1 | > 50 | 3 | 187 to 188 °C | – | – | – | –
C[C@@H]1CN(c2cncc(N/C=C3\C(=O)NC(=O)c4ccc(-c5ccoc5)cc43)c2)C[C@H](C)N1 [Example 346, (4Z)-4-[({5-[(3R,5S)-3,5-Dimethylpiperazin-1-yl]pyridin-3-yl}amino)methylene]-6-(3-furyl)isoquinoline-1,3(2H,4H)-dione] | 1.9 | 1.4 | 2.1 | 0.18 | > 50 | > 50 | 0.96 | 175 to 176 °C | – | – | – | –
COc1ccc(CNC=C2C(=O)NCc3ccccc32)cc1O [Example 160, 4-[(3-Hydroxy-4-methoxy-benzylamino)-methylene]-1,4-dihydro-2H-isoquinoline-3-one] | > 50 | 30 | 43 | 20.4 | 31 | > 50 | > 50 | 177 to 179 °C (dec.) | – | – | – | –
O=C1NC(=O)c2ccc(I)cc2/C1=C/Nc1ccc(Cn2ccnc2)cc1 [Example 273, (4Z)-4-({[4-(1H-Imidazol-1-ylmethyl)phenyl]amino}methylene)-6-iodoisoquinoline-1,3(2H,4H)-dione] | 3 | 13 | 7.9 | 24.7 | 12.3 | > 50 | 7.5 | 275 to 276 °C | – | – | – | –
O=C1NC(=O)c2ccc(I)cc2/C1=C/Nc1ccc(CN2CCOCC2)cc1 [Example 296, (4Z)-6-Iodo-4-({[4-(morpholin-4-ylmethyl)phenyl]amino}methylene)isoquinoline-1,3(2H,4H)-dione] | 4 | 2.6 | 5 | 2.1 | > 50 | > 50 | 6.2 | 186 to 187 °C | – | – | – | –
